Data from patent US20100311729A1, “Substituted imidazopyridazines and pyrrolopyrimidines as lipid kinase inhibitors” (priority 2007, published 2010).

How the values were obtained:
Format in all cases: biochemical
PI3K delta = target: T1, PI3K delta (Homo sapiens, UniProt O00329); assay: PI3 kinase assay (Kinase-Glo luminescence), PI3K delta; conditions: Enzymatic Data; read-out: PI3K delta IC50 [umol]
T1 construct: for the full-length p110-d subunit are generated and fused by overlapping PCR; His tag (C); made in house; host or cells: baculovirus; Tn5 (Trichoplusia ni) or TiniPro insect cells
How it was run: (§1)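 Recombinant PI3K constructs (alfa 10 nM, delta 10 nM, gamma 150 nM) with 1 μM ATP and 10 μg/mL phosphatidylinositol in Tris pH 7.5, MgCl2, NaCl, CHAPS, DTT; 60 min (alfa, delta) or 120 min (gamma) at room temperature. ATP depletion read by Kinase-Glo luminescence; IC50 from 4-parameter logistic fit over 8 concentrations.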

PI3K gamma = target: T2, PI3K gamma (Homo sapiens, UniProt P48736); assay: PI3 kinase assay (Kinase-Glo luminescence), PI3K gamma; conditions: Enzymatic Data; read-out: PI3K gamma IC50 [umol]
T2 construct: PI3Kγ BV-950 p110g(D144aa)-C-Term His Tag; His tag (C); made in house; host or cells: construct from the Roger Williams lab (MRC LMB) in pVL1393; baculovirus; Tn5 (Trichoplusia ni) or TiniPro insect cells
How it was run: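 Kinase-Glo luminescence assay with 1 μM ATP and 10 μg/mL phosphatidylinositol (final), reaction started by ATP addition. IC50 from 4-parameter logistic fit of percent inhibition at 8 compound concentrations (usually 10 down to 0.003 […]).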

PI3K alfa = target: T3, PI3K alfa (Homo sapiens, UniProt P42336); assay: PI3 kinase assay (Kinase-Glo luminescence), PI3K alfa; conditions: Enzymatic Data; read-out: PI3K alfa IC50 [umol]
T3 construct: for the p110-a subunit (with a deletion of the first 20 amino acids); His tag (C); made in house; host or cells: baculovirus; Tn5 (Trichoplusia ni) or TiniPro insect cells
How it was run: as §1

PI3K beta = target: T4, PI3K beta (Homo sapiens, UniProt P42338); assay: PI3 kinase assay (Kinase-Glo luminescence), PI3K beta; conditions: Enzymatic Data; read-out: PI3K beta IC50 [umol]
T4 construct: for the full-length p110-b subunit are generated and fused by overlapping PCR; His tag (C); made in house; host or cells: baculovirus; Tn5 (Trichoplusia ni) or TiniPro insect cells
How it was run: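 PI3Kβ (25 nM, BV-949) with 10 μg/mL phosphatidylinositol in Tris pH 7.5/MgCl2/NaCl/CHAPS/DTT buffer; reaction started with 1 μM ATP, 60 min at room temperature. ATP depletion read by Kinase-Glo luminescence; 8-point dilutions, IC50 by four-parameter logistic fit.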

T3 sequence (P42336 with tags, fused parts or gaps limits assumed): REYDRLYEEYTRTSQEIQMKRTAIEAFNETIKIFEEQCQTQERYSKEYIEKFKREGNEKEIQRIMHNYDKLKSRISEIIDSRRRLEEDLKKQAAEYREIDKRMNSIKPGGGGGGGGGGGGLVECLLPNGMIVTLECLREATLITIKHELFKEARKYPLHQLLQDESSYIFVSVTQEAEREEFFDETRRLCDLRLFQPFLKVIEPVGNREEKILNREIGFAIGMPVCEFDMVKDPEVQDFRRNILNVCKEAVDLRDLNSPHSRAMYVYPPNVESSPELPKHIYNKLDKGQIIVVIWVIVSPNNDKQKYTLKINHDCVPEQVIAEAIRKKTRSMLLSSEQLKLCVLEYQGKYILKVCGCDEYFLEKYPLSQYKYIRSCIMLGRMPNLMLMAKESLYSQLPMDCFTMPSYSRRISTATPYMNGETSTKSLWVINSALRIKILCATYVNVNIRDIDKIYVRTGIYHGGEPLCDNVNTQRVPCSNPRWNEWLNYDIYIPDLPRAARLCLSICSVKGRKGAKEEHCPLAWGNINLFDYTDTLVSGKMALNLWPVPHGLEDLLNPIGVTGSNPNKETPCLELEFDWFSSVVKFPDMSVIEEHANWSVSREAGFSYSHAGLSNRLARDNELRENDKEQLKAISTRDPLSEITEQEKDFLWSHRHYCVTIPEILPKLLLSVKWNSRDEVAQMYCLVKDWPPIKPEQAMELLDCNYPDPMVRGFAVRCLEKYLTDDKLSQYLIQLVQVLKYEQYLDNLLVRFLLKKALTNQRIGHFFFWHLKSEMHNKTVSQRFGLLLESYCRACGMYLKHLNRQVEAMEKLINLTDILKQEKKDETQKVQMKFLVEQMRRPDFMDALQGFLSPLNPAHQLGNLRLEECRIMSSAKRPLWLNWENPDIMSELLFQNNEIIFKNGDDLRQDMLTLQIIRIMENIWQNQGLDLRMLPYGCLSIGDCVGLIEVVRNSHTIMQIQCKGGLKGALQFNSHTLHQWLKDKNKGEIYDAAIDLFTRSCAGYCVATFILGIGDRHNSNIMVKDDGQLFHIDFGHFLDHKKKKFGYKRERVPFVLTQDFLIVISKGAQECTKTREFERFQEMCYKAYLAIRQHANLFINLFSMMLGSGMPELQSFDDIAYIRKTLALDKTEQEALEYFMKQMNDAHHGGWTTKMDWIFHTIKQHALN
T4 sequence (P42338 with tags, fused parts or gaps limits assumed): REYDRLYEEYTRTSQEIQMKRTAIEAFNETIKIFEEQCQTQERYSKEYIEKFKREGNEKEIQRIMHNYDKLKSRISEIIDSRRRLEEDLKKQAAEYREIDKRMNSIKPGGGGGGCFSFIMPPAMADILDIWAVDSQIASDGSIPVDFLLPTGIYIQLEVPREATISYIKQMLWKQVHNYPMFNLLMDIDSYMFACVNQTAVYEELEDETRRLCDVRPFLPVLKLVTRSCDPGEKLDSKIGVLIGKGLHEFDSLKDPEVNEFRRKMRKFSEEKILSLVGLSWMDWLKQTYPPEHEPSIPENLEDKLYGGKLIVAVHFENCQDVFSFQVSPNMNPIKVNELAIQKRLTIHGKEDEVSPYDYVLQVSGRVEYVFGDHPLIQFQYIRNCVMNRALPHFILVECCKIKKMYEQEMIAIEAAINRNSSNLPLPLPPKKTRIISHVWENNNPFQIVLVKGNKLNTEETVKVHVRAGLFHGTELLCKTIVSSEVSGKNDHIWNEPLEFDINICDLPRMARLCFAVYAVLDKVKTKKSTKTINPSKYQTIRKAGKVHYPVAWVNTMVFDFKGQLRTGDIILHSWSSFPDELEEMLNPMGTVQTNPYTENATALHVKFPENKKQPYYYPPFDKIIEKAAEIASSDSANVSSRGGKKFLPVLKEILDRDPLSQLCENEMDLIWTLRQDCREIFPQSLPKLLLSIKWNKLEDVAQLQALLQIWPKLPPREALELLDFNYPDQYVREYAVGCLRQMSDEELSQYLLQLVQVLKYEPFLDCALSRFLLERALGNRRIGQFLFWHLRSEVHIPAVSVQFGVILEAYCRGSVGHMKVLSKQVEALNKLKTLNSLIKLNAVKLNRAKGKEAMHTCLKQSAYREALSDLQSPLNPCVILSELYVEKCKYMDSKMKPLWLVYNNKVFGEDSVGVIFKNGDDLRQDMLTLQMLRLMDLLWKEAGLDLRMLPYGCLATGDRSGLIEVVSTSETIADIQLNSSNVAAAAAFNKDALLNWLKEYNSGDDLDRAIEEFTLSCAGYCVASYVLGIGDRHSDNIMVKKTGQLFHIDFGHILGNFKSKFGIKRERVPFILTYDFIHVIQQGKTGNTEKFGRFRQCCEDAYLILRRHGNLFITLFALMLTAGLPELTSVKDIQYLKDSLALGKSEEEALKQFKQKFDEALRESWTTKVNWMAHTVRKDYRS
T1 sequence (O00329 with tags, fused parts or gaps limits assumed): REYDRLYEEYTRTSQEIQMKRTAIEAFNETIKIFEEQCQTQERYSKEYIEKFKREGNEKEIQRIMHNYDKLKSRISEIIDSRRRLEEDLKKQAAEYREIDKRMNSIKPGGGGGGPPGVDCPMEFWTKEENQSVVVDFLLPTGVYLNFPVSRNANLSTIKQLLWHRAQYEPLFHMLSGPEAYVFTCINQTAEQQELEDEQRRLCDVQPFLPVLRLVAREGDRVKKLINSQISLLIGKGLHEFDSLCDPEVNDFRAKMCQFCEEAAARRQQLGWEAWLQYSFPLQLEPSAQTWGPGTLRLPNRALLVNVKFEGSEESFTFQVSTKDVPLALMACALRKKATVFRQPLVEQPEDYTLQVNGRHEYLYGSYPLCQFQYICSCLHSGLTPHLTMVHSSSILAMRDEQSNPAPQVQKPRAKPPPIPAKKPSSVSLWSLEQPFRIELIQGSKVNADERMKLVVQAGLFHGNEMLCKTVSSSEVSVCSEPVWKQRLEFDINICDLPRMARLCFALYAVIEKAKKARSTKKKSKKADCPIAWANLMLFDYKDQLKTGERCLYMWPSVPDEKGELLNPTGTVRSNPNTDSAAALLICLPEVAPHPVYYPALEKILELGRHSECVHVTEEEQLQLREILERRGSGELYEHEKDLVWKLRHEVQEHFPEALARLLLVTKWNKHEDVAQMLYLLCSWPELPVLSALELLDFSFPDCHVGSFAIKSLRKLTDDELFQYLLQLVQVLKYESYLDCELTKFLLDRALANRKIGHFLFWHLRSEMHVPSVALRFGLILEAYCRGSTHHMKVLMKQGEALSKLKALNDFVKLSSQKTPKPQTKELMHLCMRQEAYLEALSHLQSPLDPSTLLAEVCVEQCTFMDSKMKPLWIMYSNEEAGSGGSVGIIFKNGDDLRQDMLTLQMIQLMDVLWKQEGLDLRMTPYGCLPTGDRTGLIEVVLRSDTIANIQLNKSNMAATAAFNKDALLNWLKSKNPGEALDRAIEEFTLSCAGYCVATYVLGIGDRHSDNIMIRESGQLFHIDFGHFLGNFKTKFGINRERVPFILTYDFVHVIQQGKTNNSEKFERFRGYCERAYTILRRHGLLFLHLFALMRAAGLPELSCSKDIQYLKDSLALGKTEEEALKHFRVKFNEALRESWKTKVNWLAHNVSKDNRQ
T2 sequence (P48736 144-1102 limits assumed): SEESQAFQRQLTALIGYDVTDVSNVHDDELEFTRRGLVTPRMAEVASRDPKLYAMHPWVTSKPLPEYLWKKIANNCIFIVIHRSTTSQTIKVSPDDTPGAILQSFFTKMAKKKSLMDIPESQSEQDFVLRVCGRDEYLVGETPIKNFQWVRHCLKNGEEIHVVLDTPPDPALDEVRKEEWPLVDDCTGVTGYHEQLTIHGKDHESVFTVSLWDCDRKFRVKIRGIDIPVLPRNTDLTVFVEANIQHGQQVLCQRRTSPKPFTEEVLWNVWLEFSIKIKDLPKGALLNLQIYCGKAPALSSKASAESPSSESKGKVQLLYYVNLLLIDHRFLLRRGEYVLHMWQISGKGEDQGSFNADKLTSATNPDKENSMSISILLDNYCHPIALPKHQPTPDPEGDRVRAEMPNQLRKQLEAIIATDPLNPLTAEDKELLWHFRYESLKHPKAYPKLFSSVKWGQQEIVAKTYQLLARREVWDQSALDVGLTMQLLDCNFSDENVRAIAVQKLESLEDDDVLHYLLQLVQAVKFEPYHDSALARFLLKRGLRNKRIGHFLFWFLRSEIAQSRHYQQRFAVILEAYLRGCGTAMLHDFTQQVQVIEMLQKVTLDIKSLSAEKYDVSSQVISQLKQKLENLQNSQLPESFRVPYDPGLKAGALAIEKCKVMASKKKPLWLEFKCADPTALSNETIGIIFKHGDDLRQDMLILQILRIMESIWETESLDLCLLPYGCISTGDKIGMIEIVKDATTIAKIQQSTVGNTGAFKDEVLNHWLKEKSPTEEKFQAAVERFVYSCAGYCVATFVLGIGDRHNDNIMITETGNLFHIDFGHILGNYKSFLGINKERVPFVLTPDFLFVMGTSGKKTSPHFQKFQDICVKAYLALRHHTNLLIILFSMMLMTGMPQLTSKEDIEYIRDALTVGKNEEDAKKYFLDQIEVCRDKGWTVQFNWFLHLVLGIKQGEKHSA

| SMILES | IC50 (PI3K delta) | IC50 (PI3K gamma) | IC50 (PI3K alfa) | IC50 (PI3K beta) |
| --- | --- | --- | --- | --- |
| Nc1ncc(-c2ccc3ncc(-c4ccc(OCCCNC(=O)C5CC5)cc4)n3n2)cc1C(F)(F)F [Example 142, Cyclo-propane-carboxylic acid (3-{4-[6-(6-amino-5-trifluoro-methyl-pyridin-3-yl)-imidazo [1,2-b]pyridazin-3-yl]-phenoxy}-propyl)-amide] | 319 nM | > 9100 nM | 45 nM | 3160 nM |
| Nc1ncc(-c2ccc3ncc(-c4ccc(C(=O)N5CCN(CC(=O)N6CCOCC6)CC5)cc4)n3n2)cc1C(F)(F)F [Example 144, 2-(4-{4-[6-(6-Amino-5-trifluoro-methyl-pyridin-3-yl)-imidazo [1,2-b]pyridazin-3-yl]-benzoyl}-piperazin-1-yl)-1-morpholin-4-yl-ethanone] | 266 nM | 5900 nM | 175 nM | 533 nM |
| Nc1ncc(-c2ccc3ncc(-c4ccc(C(=O)N5CCN(CCO)CC5)cc4)n3n2)cc1C(F)(F)F [Example 145] | 151 nM | 6920 nM | 97 nM | 508 nM |
| Nc1ncc(-c2cnc3ccc(-c4ccc(OCC5(NC(=O)C6CC6)COC5)cc4)nn23)cc1C(F)(F)F [Example 146, Cyclopropanecarboxylic acid (3-{4-[3-(6-amino-5-trifluoromethyl-pyridin-3-yl)-imidazo[1,2-b]pyridazin-6-yl]-phenoxymethyl}-oxetan-3-yl)-amide] | 280 nM | 1730 nM | 54 nM | 2540 nM |
| Nc1ncc(-c2cnc3ccc(-c4ccc5c(c4)OCO5)nn23)cc1C(F)(F)F [Example 155, 5-(6-Benzo[1,3]dioxol-5-yl-imidazo [1,2-b]pyridazin-3-yl)-3-trifluoro-methyl-pyridin-2-ylamine] | 174 nM | > 9100 nM | 70 nM | 639 nM |
| Nc1ncc(-c2cnc3ccc(-c4ccc(OCCNC(=O)C5CC5)cc4)nn23)cc1C(F)(F)F [Example 157, Cyclo-propane-carboxylic acid (2-{4-[3-(6-amino-5-trifluoro-methyl-pyridin-3-yl)-imidazo [1,2-b]pyridazin-6-yl]-phenoxy}-ethyl)-amide] | 202 nM | 2040 nM | 21 nM | 842 nM |
| COc1cc(-c2cnc3ccc(-c4cnc(N)c(C(F)(F)F)c4)nn23)c(F)cc1C(=O)NCCN1CCOCC1 [Example 158, 4-[6-(6-Amino-5-trifluoro-methyl-pyridin-3-yl)-imidazo [1,2-b]pyridazin-3-yl]-5-fluoro-2-methoxy-N-(2-morpholin-4-yl-ethyl)-benzamide] | 113 nM | > 9100 nM | 38 nM | 388 nM |
| COc1cc(-c2cnc3ccc(-c4cnc(N)c(C(F)(F)F)c4)nn23)c(F)cc1C(=O)NCCN1CCS(=O)(=O)CC1 [Example 160, 4-[6-(6-Amino-5-trifluoro-methyl-pyridin-3-yl)-imidazo [1,2-b]pyridazin-3-yl]-N-[2-(1,1-dioxo-1lambda*6*- thio-morpholin-4-yl)-ethyl]-5-fluoro-2-methoxy-benzamide] | 39 nM | 1260 nM | 22 nM | 144 nM |

Stronger by IC50 (PI3K delta), values ahead:

| IC50 (PI3K delta) | IC50 (PI3K gamma) | IC50 (PI3K alfa) | IC50 (PI3K beta) | SMILES |
| --- | --- | --- | --- | --- |
| 28 nM | 1180 nM | 44 nM | 72 nM | Nc1ncc(-c2ccc3ncc(-c4cnc5c(c4)ncn5CCN4CCOCC4)n3n2)cc1C(F)(F)F [Example 143, 5-{3-[3-(2-Morpholin-4-yl-ethyl)-3H-imidazo [4,5-b]pyridin-6-yl]-imidazo [1,2-b]pyridazin-6-yl}-3-trifluoro-methyl-pyridin-2-ylamine] |
| 14 nM | 404 nM | 19 nM | 40 nM | CCN(CC)CCn1cnc2cc(-c3cnc4ccc(-c5cnc(N)c(C(F)(F)F)c5)nn34)cnc21 [Example 149, 5-{3-[3-(2-Diethyl-amino-ethyl)-3H-imidazo [4,5-b]pyridin-6-yl]-imidazo [1,2-b]pyridazin-6-yl}-3-trifluoro-methyl-pyridin-2-ylamine] |
| 31 nM | > 9100 nM | 13 nM | 132 nM | Nc1ncc(-c2ccc3ncc(-c4ccc(C(=O)NCCn5ccnc5)cc4)n3n2)cc1C(F)(F)F [Example 150, 4-[6-(6-Amino-5-trifluoro-methyl-pyridin-3-yl)-imidazo [1,2-b]pyridazin-3-yl]-N-{2-imidazol-1-yl-ethyl)-benzamide] |
| 27 nM | 946 nM | 8 nM | 141 nM | Nc1ncc(-c2ccc3ncc(-c4ccc(C(=O)NCCN5CCOCC5)cc4F)n3n2)cc1C(F)(F)F [Example 151, 4-[6-(6-Amino-5-trifluoro-methyl-pyridin-3-yl)-imidazo [1,2-b]pyridazin-3-yl]-3-fluoro-N-(2-morpholin-4-yl-ethyl)-benzamide] |
| 13 nM | 485 nM | 9 nM | 40 nM | Nc1ncc(-c2ccc3ncc(-c4ccc(C(=O)NCCCN5CCOCC5)cc4F)n3n2)cc1C(F)(F)F [Example 152, 4-[6-(6-Amino-5-trifluoro-methyl-pyridin-3-yl)-imidazo [1,2-b]pyridazin-3-yl]-3-fluoro-N-(3-morpholin-4-yl-propyl)-benzamide] |
| 13 nM | 1260 nM | 8 nM | 271 nM | Nc1ncc(-c2ccc3ncc(-c4ccc(C(=O)NCCN5CCS(=O)(=O)CC5)cc4F)n3n2)cc1C(F)(F)F [Example 153, 4-[6-(6-Amino-5-trifluoro-methyl-pyridin-3-yl)-imidazo [1,2-b]pyridazin-3-yl]-N-[2-(1,1-dioxo-1lambda*6*- thio-morpholin-4-yl)-ethyl]-3-fluoro-benzamide] |
| 6 nM | 267 nM | 5 nM | 71 nM | Nc1ncc(-c2ccc3ncc(-c4ccc(C(=O)NCCN5CCS(=O)(=O)CC5)cc4)n3n2)cc1C(F)(F)F [Example 154, 4-[6-(6-Amino-5-trifluoro-methyl-pyridin-3-yl)-imidazo [1,2-b]pyridazin-3-yl]-N-[2-(1,1-dioxo-1lambda*6*- thio-morpholin-4-yl)-ethyl]-benzamide] |
| 14 nM | 400 nM | 8 nM | 73 nM | Nc1ncc(-c2ccc3ncc(-c4ccc(C(=O)NCCn5ccnc5)cc4F)n3n2)cc1C(F)(F)F [Example 156, 4-[6-(6-Amino-5-trifluoro-methyl-pyridin-3-yl)-imidazo [1,2-b]pyridazin-3-yl]-3-fluoro-N-(2-imidazol-1-yl-ethyl)-benzamide] |
| 13 nM | 617 nM | 18 nM | 36 nM | COc1cc(-c2cnc3ccc(-c4cnc(N)c(C(F)(F)F)c4)nn23)c(F)cc1C(=O)NCCCN1CCOCC1 [Example 159, 4-[6-(6-Amino-5-trifluoro-methyl-pyridin-3-yl)-imidazo [1,2-b]pyridazin-3-yl]-5-fluoro-2-methoxy-N-(3-morpholin-4-yl-propyl)-benzamide] |
| 9 nM | 2400 nM | 3 nM | 28 nM | COc1cc(-c2cnc3ccc(-c4cnc(N)c(C(F)(F)F)c4)nn23)c(F)cc1C(=O)NCCn1ccnc1 [Example 161, 4-[6-(6-Amino-5-trifluoro-methyl-pyridin-3-yl)-imidazo (1,2-b]pyridazin-3-yl]-5-fluoro-N-(2-imidazol-1-yl-ethyl)-2-methoxy-benzamide] |
